Experimental data published in ChEMBL document CHEMBL3393021, “Evaluation and synthesis of polar aryl- and heteroaryl spiroazetidine-piperidine acetamides as ghrelin inverse agonists” (ACS Med Chem Lett, 2015).
Converted amounts (≈) assume the structure as drawn. Each block holds one molecule with its values, some of them ahead of it.

Assays:
[1] = physchem; settings: buffer, pH 7.4
[2] = Kinetic solubility in 2% sodium phosphate buffer at pH 6.5 after 24 hrs; assay type: physicochemical; settings: read-out: Kinetic_solubility
[3] = Toxicity in human THLE cells; assay type: cell-based
[4] = Volume of distribution at steady state in Wistar Han rat at 1 mg/kg, iv or 5 mg/kg, po; assay type: ADME, organism-based; settings: in vivo, read-out: Vdss
[5] = Oral bioavailability in Wistar Han rat at 5 mg/kg; assay type: ADME, organism-based; settings: in vivo
[6] = Volume of distribution at steady state in […] at 1 mg/kg, iv or 4 mg/kg, po; assay type: ADME, organism-based, Canis lupus familiaris; settings: in vivo, read-out: Vdss
[7] = Oral bioavailability in […] at 4 mg/kg; assay type: ADME, organism-based, Canis lupus familiaris; settings: in vivo
[8] = Volume of distribution at steady state in […] at 1 mg/kg, iv or 5 mg/kg, po; assay type: ADME, organism-based, Macaca fascicularis; settings: in vivo, read-out: Vdss
[9] = Oral bioavailability in […] at 5 mg/kg; assay type: ADME, organism-based, Macaca fascicularis; settings: in vivo

Compound: Cc1cc(-c2ccc3c(c2)CC[C@H]3N2CC3(CCN(C(=O)Cc4nn(C)c5ncccc45)CC3)C2)ncn1
logD [1]: 2.1

Compound: COc1ccc(OCC(=O)N2CCC3(CC2)CN([C@@H]2CCc4cc(-c5cc(C)ncn5)ccc42)C3)c(C#N)c1
logD [1]: 2.3

Compound: COc1ccc(CCC(=O)N2CCC3(CC2)CN([C@@H]2CCc4cc(-c5cc(C)ncn5)ccc42)C3)c(C(N)=O)c1
logD [1]: 1.9

Now from value to molecule, other results behind:

logD [1]: 1.6
Compound: COc1ccc(CC(=O)N2CCC3(CC2)CN([C@@H]2CCc4cc(-c5cc(C)ncn5)ccc42)C3)nc1

logD [1]: 1.6
Compound: COc1ccc(CC(=O)N2CCC3(CC2)CN([C@@H]2CCc4cc(-c5cc(C)ncn5)ccc42)C3)c(NC(C)=O)c1

solubility kinetic at 24 h [2]: 185 µg/mL (≈ 352 µM)
Vd [4]: 8.1 L/kg
bioavailability [5]: 15%
Vd [6]: 7.3 L/kg
bioavailability [7]: 67%
Vd [8]: 2.2 L/kg
bioavailability [9]: 32%
logD [1]: 1.4
Compound: COc1ccc(CC(=O)N2CCC3(CC2)CN([C@@H]2CCc4cc(-c5cc(C)ncn5)ccc42)C3)c(C(N)=O)c1
INH [3]: > 248 µM

logD [1]: 2.4
Compound: COc1ccc(CC(=O)N2CCC3(CC2)CN([C@@H]2CCc4cc(-c5cc(C)ncn5)ccc42)C3)c(C#N)c1
